Results published in the supplement of paper PMC10307832.

Key:
Assay in all cases: relative viability (nuclei count vs DMSO), 5 days (fraction); higher = more cells survive
[1] = compound: CC1(C)CCC(c2ccc(Cl)cc2)=C(CN2CCN(c3ccc(C(=O)NS(=O)(=O)c4ccc(N[C@H](CCN5CCOCC5)CSc5ccccc5)c(S(=O)(=O)C(F)(F)F)c4)cc3)CC2)C1 [Navitoclax]
Outline: (§1)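 MetaXpress counted nuclei in 4× images of lung cancer cell lines that had been fixed, permeabilised and Hoechst-stained in one step. Before that, cells in 1536-well plates were kept overnight at 37 °C, pinned with five √10-spaced library-drug doses on vehicle-anchored plates, and cultured 5 days without medium change. Viability takes treated-well nuclei over vehicle-well nuclei and uses the median across plates. Plates were accepted only at control CV below 25% and at least one doubling.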

[2] = compound: CCCCCCCC[C@H]1[C@@H](C(=C)C(=O)O1)C(=O)O [C-75]
Outline: as §1

[3] = compound: NC(=O)Nc1cc(-c2cccc(F)c2)sc1C(=O)N[C@H]1CCCNC1 [AZD7762]
Outline: as §1

[4] = compound: O=C(O)c1ccc(-c2c[nH]c3ncc(-c4ccccc4)cc23)cc1C1CCCC1
Outline: as §1

[5] = compound: Oc1nc(-c2ccc(C(F)(F)F)cc2)nc2c1CSCC2 [XAV939]
Outline: as §1

Cell Line	relative viability ([1]; 0.005 µM)	relative viability ([1]; 0.01581 µM)	relative viability ([1]; 0.05 µM)	relative viability ([1]; 0.1581 µM)	relative viability ([1]; 0.5 µM)	relative viability ([1]; 0.5 µM, anchor plate)	relative viability ([2]; 0.08 µM)	relative viability ([2]; 0.253 µM)	relative viability ([2]; 0.8 µM)	relative viability ([2]; 2.53 µM)	relative viability ([2]; 8 µM)	relative viability ([3]; 0.01 µM)	relative viability ([3]; 0.03162 µM)	relative viability ([3]; 0.1 µM)	relative viability ([3]; 0.3162 µM)	relative viability ([3]; 1 µM)	relative viability ([4]; 0.04 µM)	relative viability ([4]; 0.1265 µM)	relative viability ([4]; 0.4 µM)	relative viability ([4]; 1.265 µM)	relative viability ([5]; 0.08 µM)	relative viability ([5]; 0.253 µM)	relative viability ([5]; 0.8 µM)	relative viability ([5]; 2.53 µM)	relative viability ([3]; 0.2 µM, anchor plate)
IA-LM	0.941	1.07	0.915	1	0.977	0.755	0.917	1.14	0.87	0.676	0.853	1.12	1.02	1.15	1.01	0.708	0.921	1.1	1.07	0.887	0.937	0.864	0.935	0.701	–
LC-2-ad	0.961	1.07	0.925	0.948	0.991	0.445	1.05	1.02	0.93	0.789	0.986	0.992	1.1	0.998	0.908	0.644	0.973	1.1	0.933	0.692	1.03	0.904	0.953	1	0.86
LCLC-97TM1	0.966	1.06	0.915	0.94	1.02	0.502	0.963	1.09	0.95	0.813	0.622	1.05	0.98	1.11	0.926	0.588	1.04	0.957	0.98	0.901	0.975	0.764	0.879	0.944	0.281
LCLC-103H	1.02	1.03	0.83	1.04	1.05	–	0.919	0.998	0.909	0.788	1.03	1.03	0.974	1.02	0.907	0.992	1.01	1.08	0.991	1.09	1.08	0.914	0.92	0.831	0.796
LK-2	1.02	1.03	1.11	0.997	1.02	0.886	0.911	1.25	1.02	0.841	0.706	1.05	1.12	0.955	0.938	0.776	1	1.06	0.872	0.944	1.06	0.877	1.01	0.755	0.467
LOU-NH91	1.01	1	0.921	0.865	0.513	0.718	0.959	0.977	0.862	0.778	0.969	0.941	1.1	0.975	0.894	0.775	0.934	1.14	0.975	0.915	0.979	0.868	0.954	0.953	0.784
LU99A	0.916	1.13	0.933	1.03	1.04	0.839	1	0.928	0.97	0.834	0.858	0.943	1.1	0.995	0.986	0.414	0.958	0.941	0.894	0.65	0.78	0.827	0.939	1.02	0.356
LXF-289	0.974	0.989	0.884	0.99	0.972	0.949	0.958	0.95	0.983	0.862	1.02	0.963	1.02	1.05	0.979	1.07	0.969	0.967	0.876	0.703	1	0.94	0.998	1.03	1.1
NCI-H23	0.925	0.979	0.98	0.896	0.962	0.869	0.897	1.07	0.867	0.687	0.44	0.866	1.07	0.993	0.693	0.278	0.947	1.22	0.812	0.699	0.973	0.796	0.982	0.838	0.273
NCI-H322M	1.03	1.1	0.926	0.974	1.06	1.24	0.964	1.22	0.905	0.839	0.952	0.956	1.06	0.928	0.683	0.397	1.01	1.02	0.956	0.886	1.03	0.835	0.852	0.655	0.589
NCI-H358	1.01	1.2	0.961	0.985	0.977	–	0.849	0.896	0.874	0.854	0.693	1.02	1.13	0.878	0.758	0.444	0.893	1.17	0.88	0.611	0.795	0.77	0.857	0.777	0.536
NCI-H441	0.981	1.07	1.06	1.11	0.986	0.701	1.14	1.09	0.907	0.764	0.957	1.11	1.2	1.05	1.34	1.03	1.01	1.08	0.817	0.6	1.18	0.962	1.1	1.04	1.14
NCI-H460	0.988	1.01	0.951	0.977	0.963	1.08	1.01	1.04	0.922	0.768	0.946	1.06	1	1.01	0.954	0.387	1.01	1.05	0.991	0.92	0.996	0.88	0.944	0.929	0.618
NCI-H520	0.997	0.925	1.14	0.99	0.94	1.12	1.02	1.21	0.952	0.615	0.825	1.09	1.01	0.972	0.89	0.337	1.03	0.894	1.01	0.902	1.09	0.965	0.87	0.928	–
NCI-H522	0.841	1.12	1.03	0.912	0.978	–	0.97	0.898	1.02	0.721	0.873	1.02	1.15	0.955	0.939	0.839	0.851	1.13	0.83	0.945	0.962	0.901	0.983	0.881	0.841
NCI-H596	1.07	0.942	0.711	0.964	1.04	0.936	1.01	1.14	0.909	0.852	0.997	1.07	1.08	1.08	0.929	0.891	0.927	0.982	1.02	0.971	1.1	1.02	1.11	1.03	1.1
NCI-H647	0.859	1.04	1.13	0.871	0.881	1.12	0.919	0.996	0.74	0.915	0.78	1.04	1.14	0.923	0.616	0.194	0.975	1.03	0.908	0.709	1.02	0.845	0.918	0.866	0.505
NCI-H650	0.908	0.97	0.956	0.853	1.04	–	0.916	0.875	0.862	0.87	0.817	1.08	1.05	0.905	0.954	0.914	0.908	1.03	0.77	0.67	1.03	1.08	0.99	0.824	1.03
NCI-H661	0.985	0.995	1.05	0.916	0.935	–	0.983	1.01	0.98	0.911	0.94	1.03	1.11	1.1	0.979	0.558	0.915	1.02	0.969	1.01	1.02	0.952	0.945	0.956	–
NCI-H727	0.886	1.18	–	0.87	0.894	0.491	0.824	1.4	0.968	0.73	1.04	0.838	1.18	0.953	0.764	0.444	0.995	1.01	0.986	0.928	1.11	0.731	0.899	0.975	0.576
NCI-H838	0.964	1.02	1.08	1	0.97	1.21	0.989	0.82	0.941	0.867	0.895	1.04	0.982	1.01	0.942	0.599	0.972	1.16	0.994	0.926	0.965	0.892	0.805	0.624	0.944
NCI-H1299	1	1.05	1	1.01	1.03	1.03	1.01	0.98	1.02	0.899	1.03	1.06	1.01	1.06	1.02	0.56	1.03	1.04	0.957	0.878	1.04	0.939	1.06	1.03	–
NCI-H1355	1.03	1.07	0.956	0.975	0.986	1.01	0.966	1.01	0.921	0.89	0.982	0.874	0.979	0.938	1.09	0.785	1.02	1.14	0.979	0.744	0.938	0.831	0.826	0.759	0.819
NCI-H1395	0.998	0.943	0.922	0.905	1	1.25	0.828	0.893	0.794	0.788	1.04	0.931	1.11	1.06	0.461	0.408	0.94	1.01	0.893	0.837	0.918	0.903	0.88	0.972	0.398
NCI-H1437	0.969	1.05	0.932	0.958	0.974	1.06	0.941	1.05	0.919	0.984	0.987	1.05	0.963	1.04	1.01	0.867	0.962	0.988	0.976	0.586	1.03	0.901	0.999	0.93	1.11
NCI-H1563	0.973	1.04	0.9	1.04	1.28	–	1.06	1.06	0.884	0.92	1.08	1.02	1.01	0.993	1.05	0.914	1.07	1.03	0.958	1.01	0.978	0.987	0.822	0.698	–
NCI-H1623	0.936	0.957	0.812	0.984	1.03	–	1.02	1.22	1.02	0.931	0.978	0.869	0.938	0.936	1.1	0.895	0.963	0.995	0.932	0.762	0.922	0.838	0.848	0.814	–
